Data taken from patent US4233291A (priority 1977, dated 1980).

Legend:
leukemic cells L 1210 = test system: leukemic cells L 1210; design: species or system mice; conditions: mouse, in vivo
[1] = test system: peritoneal macrophages from unstimulated rats (Fisher strain); assay: Stimulation of the activities of the macrophages, cultivated with the substance; type: cell-based; conditions: 16 hours incubation
Procedure: The peritoneal macrophages from unstimulated rats (Fisher strain) are prelevated through peritoneal washing and isolation on plastic rack. They are cultivated for a night with dosages of the depsipeptide ranging from 1 picogramm to 1 nanogramm/ml.
The content in proteins, in lysosomal β-glucoronidase, and in cytoplasmic leucine-amino peptidase are determined on the cells previously lysed with 0.05% Triton X-100.
In the same manner, incubation has also been performed with a solution of lipopolysaccharide from Escherichia coli and Muramyldipeptide as reference substances.
Amounts of cellular enzymes and proteins in the macrophages after 16 hours incubation.
The content in proteins is expressed in g/10^6 cells and that in β-glucuronidase in mMol of substrate hydrolysed by 10^6 cells per hour.

[2] = test system: larvae of schistosoma mansoni; assay: Release of 51 chromium from larvae of schistosoma mansoni, cytotoxicity in vivo; conditions: macrophages of the rat stimulated in vivo
Source text: The depsipeptide from Fusarium equiseti has been tested to determine its action in vivo on the cytotoxicity induced in the intraperitoneal macrophages of the rat against the larvae of schistosoma mansoni.
The macrophages are stimulated either in vitro or in vivo and are contacted with a suspension of larvae of schistosoma mansoni previously tagged with 51 chromium.
This measure reflects the significance of cellular lesions on the surface of the schistosomules. The radio activity released in the medium is expressed as a percentage of the total radio-activity present in the schistosomules at the beginning of the experiments.

[3] = 1 ng/ml (row printed after the first 100 ng/ml)
[4] = 10 ng/ml (second row so printed)
[5] = 100 ng/ml (second row so printed, last row)

Compound: O=P1(N(CCCl)CCCl)NCCCO1 (stereo not drawn) [Cyclophosphamide]
- survival time (leukemic cells L 1210): extends in a statiscally significative manner

Compound: CC(=O)N[C@@H]1[C@@H](O[C@H](C)C(=O)N[C@@H](C)C(=O)N[C@H](CCC(=O)O)C(N)=O)[C@H](O)[C@@H](CO)O[C@H]1O [Muramyldipeptide]
- Proteins ([1]; 1 pg/ml): 46,1 ± 2,2 g/10^6 cells
- β-glucuronidase ([1]; 1 pg/ml): 36,5 ± 0,1 mMol of substrate hydrolysed b
- Proteins ([1]; 10 pg/ml): 44,8 ± 0,7 g/10^6 cells
- β-glucuronidase ([1]; 10 pg/ml): 36,3 ± 6,4 mMol of substrate hydrolysed b
- Proteins ([1]; 100 pg/ml): 44,6 ± 1,9 g/10^6 cells
- β-glucuronidase ([1]; 100 pg/ml): 41,0 ± 2,9 mMol of substrate hydrolysed b
- Proteins [1, 3]: 45,1 ± 0,9 g/10^6 cells
- β-glucuronidase [1, 3]: 30,6 ± 3,8 mMol of substrate hydrolysed b
- Proteins ([1]; 1 ng): 44,0 ± 1,8 g/10^6 cells
- β-glucuronidase ([1]; 1 ng): 34,0 ± 5,3 mMol of substrate hydrolysed b
- Proteins [1, 4]: 48,1 ± 1,8 g/10^6 cells
- β-glucuronidase [1, 4]: 32,2 ± 3,0 mMol of substrate hydrolysed b
- Proteins ([1]; 10 ng/ml): 43,4 ± 1,8 g/10^6 cells
- β-glucuronidase ([1]; 10 ng/ml): 39,6 ± 6,1 mMol of substrate hydrolysed b
- Proteins [1, 5]: 55,3 ± 3,1 g/10^6 cells
- β-glucuronidase [1, 5]: 39,0 ± 1,6 mMol of substrate hydrolysed b
- Proteins ([1]; 100 ng/ml): 40,5 ± 0,7 g/10^6 cells
- β-glucuronidase ([1]; 100 ng/ml): 23,9 ± 6,2 mMol of substrate hydrolysed b
- release of 51 Cr (change) ([2]; 1 g): +6%
- release of 51 Cr (change) ([2]; 100 g): +10%
